Reference: paper PMC9569940, “Discovery and In Vivo Efficacy of Trace Amine-Associated Receptor 1 (TAAR1) Agonist 4-(2-Aminoethyl)-N-(3,5-dimethylphenyl)piperidine-1-carboxamide Hydrochloride (AP163) for the Treatment of Psychotic Disorders” (International Journal of Molecular Sciences, 2022)
“Also recorded” adds a separate entry of the source. Counter-ions that a name gives are not always drawn.

Assays:
TAAR1 [1] = target: T1, TAAR1 (Homo sapiens, UniProt Q96RJ0); assay: BRET cAMP biosensor (EPAC) assay of TAAR1 agonistic activity in transiently transfected HEK-293 cells; type: cell-based; design: key to Agonistic Activity (class Inactive): Inactive: Producing less than 20% activation of TAAR1 relative to 1 μM tyramine hydrochloride; details: for EC50 / EC50, μM: TAAR1 agonistic activity, concentration-response; for Agonistic Activity at 1 μM, %: compound at 1 μM; for Agonistic Activity at 1 μM, % / activation at 10 µM: compared to 1 μM tyramine hydrochloride (positive control), primary screening; for TAAR1 Activity (active / inactive, in words): agonistic activity in words; for Agonistic Activity (class Inactive): primary screening at 1 μM or 10 μM, relative to 1 μM tyramine hydrochloride; for activation at 10 µM: HEK293, compound at 10 μM (footnote c)
T1 construct: expressed in transfected cells; host or cells: HEK-293 cells, transient transfection
T1 sequence (Q96RJ0 1-339): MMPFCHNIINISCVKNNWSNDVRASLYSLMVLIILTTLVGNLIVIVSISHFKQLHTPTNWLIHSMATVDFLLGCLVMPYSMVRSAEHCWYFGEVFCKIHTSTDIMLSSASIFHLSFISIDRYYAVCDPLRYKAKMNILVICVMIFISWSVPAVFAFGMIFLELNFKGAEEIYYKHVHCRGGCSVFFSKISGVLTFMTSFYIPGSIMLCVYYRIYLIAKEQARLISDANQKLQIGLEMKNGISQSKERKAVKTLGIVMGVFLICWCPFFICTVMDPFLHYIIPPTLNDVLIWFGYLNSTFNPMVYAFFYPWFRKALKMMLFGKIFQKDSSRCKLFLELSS
Procedure: Compounds 7–29 synthesized as described above (as well the initial hit compound 1 used as a comparator) were tested in the Bioluminescence Resonance Energy Transfer approach (BRET) assay using HEK-293 cells transiently transfected with cDNA for TAARs as well as cAMP BRET biosensor (EPAC) protein. The compounds were initially tested at 1 μM or 10 μM concentrations and those producing <20% activation of TAAR1 (relative to 1 μM tyramine hydrochloride) were not pursued further. The active compounds were further evaluated in a dose–response mode in order to determine their EC50 values.
The Bioluminescence Resonance Energy Transfer approach (BRET) has been used for functional activity experiments. HEK-293 cells were transiently transfected with cDNA for TAARs and cAMP BRET biosensor (EPAC) protein and then plated in a 96-well plate as described. All compounds were tested at the initial concentrations of 1 μM or 10 μM. Then, for active compounds, a concentration–response analysis was performed in order to calculate the EC50 values. Natural agonist of TAAR1 tyramine hydrochloride was used as a positive control.

[2] = tested on: dopamine transporter knockout (DAT-KO) rats; assay: DAT-KO rat hyperlocomotion test; type: in vivo; details: for Reduction in hyperlocomotion of DAT-KO rats: i.p., 90 min locomotion test, dose range 5–15 mg/kg for 18
Procedure: Compounds 9, 17–19 were evaluated in dopamine transporter knockout (DAT-KO) rats characterized with psychosis-like hyperlocomotion activity. The ability of compounds to reduce the hyperlocomotion in these genetically modified animals generally deemed as an adequate model of psychosis-like states and schizophrenia was expected to unveil the potential of these compounds as potential therapies for these psychiatric disorders.
Twelve Wistar dopamine transporter knockout (DAT-KO) female rats were utilized for assessment of drugs’ activity on hyperlocomotion. Animals were maintained on a 12/12 light/dark cycle at the room temperature maintained between 20 °C and 23 °C with a relative humidity maintained between 30% and 70%. Chow and water were provided ad libitum for the duration of the studies.
All compounds were dissolved in physiological saline (0.9% solution of NaCl) and intraperitoneally injected in volume 10 mL/kg immediately before locomotion testing.
Rats were intraperitoneally injected with a compound solution or vehicle (saline) and were immediately placed in Plexiglas boxes 40 cm × 40 cm × 40 cm for 90 min. Noldus EthoVision software was used to measure the distance moved by the animals.

Solubility = type: physicochemical; details: reason for not progressing to in vivo tests
TAAR1 [3] = target: T1, TAAR1; design: method as in PMID 11723224; details: not tested in this paper; cited from earlier work

SMILES | EC50 (TAAR1 [1]) | Agonistic Activity (class Inactive) (TAAR1 [1]) | activation at 10 µM (TAAR1 [1]) | further results
Cl.NCCC1CCN(C(=O)Nc2ccccc2)CC1 [Compound 1, 4-(2-Aminoethyl)-N-phenylpiperidine-1-carboxamide hydrochloride] | 507 nM | – | – | Agonistic Activity at 1 μM, % (TAAR1 [1]): 65%
Cc1ccc(NC(=O)N2CCC(CCN)CC2)cc1.Cl [Compound 7, 4-(2-Aminoethyl)-N-(4-methylphenyl)piperidine-1-carboxamide hydrochloride] | – | Inactive ^b | – | TAAR1 Activity (active / inactive, in words) (TAAR1 [1]): Inactive
Cl.NCCC1CCN(C(=O)Nc2cccc(F)c2)CC1 [Compound 8, 4-(2-Aminoethyl)-N-(3-fluorophenyl)piperidine-1-carboxamide hydrochloride] | – | Inactive | – | –
Cc1cccc(NC(=O)N2CCC(CCN)CC2)c1.Cl [Compound 9, 4-(2-Aminoethyl)-N-(3-methylphenyl)piperidine-1-carboxamide hydrochloride] | 52 nM | – | – | Reduction in hyperlocomotion of DAT-KO rats [2]: absence of in vivo efficacy; TAAR1 Activity (active / inactive, in words) (TAAR1 [1]): Active; Agonistic Activity at 1 μM, % (TAAR1 [1]): 89%
Cc1ccccc1NC(=O)N1CCC(CCN)CC1.Cl [Compound 10, 4-(2-Aminoethyl)-N-(2-methylphenyl)piperidine-1-carboxamide hydrochloride] | – | Inactive | – | TAAR1 Activity (active / inactive, in words) (TAAR1 [1]): Inactive
Cl.NCCC1CCN(C(=O)Nc2ccc(F)cc2)CC1 [Compound 11, 4-(2-Aminoethyl)-N-(4-fluorophenyl)piperidine-1-carboxamide hydrochloride] | 206 nM | – | – | EC50, μM (TAAR1 [1]): submicromolar; Agonistic Activity at 1 μM, % (TAAR1 [1]): 84%
Cl.NCCC1CCN(C(=O)Nc2cc(F)ccc2F)CC1 [Compound 12, 4-(2-Aminoethyl)-N-(2,5-difluorophenyl)piperidine-1-carboxamide hydrochloride] | 273 nM | – | – | TAAR1 Activity (active / inactive, in words) (TAAR1 [1]): Active; Agonistic Activity at 1 μM, % (TAAR1 [1]): 75%
Cl.NCCC1CCN(C(=O)Nc2ccc(F)cc2F)CC1 [Compound 13, 4-(2-Aminoethyl)-N-(2,4-difluorophenyl)piperidine-1-carboxamide hydrochloride] | – | Inactive | – | TAAR1 Activity (active / inactive, in words) (TAAR1 [1]): Inactive
Cl.NCCC1CCN(C(=O)Nc2cc(F)cc(F)c2)CC1 [Compound 14, 4-(2-Aminoethyl)-N-(3,5-difluorophenyl)piperidine-1-carboxamide hydrochloride] | – | Inactive | – | TAAR1 Activity (active / inactive, in words) (TAAR1 [1]): Inactive
Cc1ccc(NC(=O)N2CCC(CCN)CC2)cc1F.Cl [Compound 15, 4-(2-Aminoethyl)-N-(3-fluoro-4-methylphenyl)piperidine-1-carboxamide hydrochloride] | – | Inactive | – | EC50, μM (TAAR1 [1]): inactive
Cc1cc(NC(=O)N2CCC(CCN)CC2)ccc1F [Compound 16, 4-(2-Aminoethyl)-N-(4-fluoro-3-methylphenyl)piperidine-1-carboxamide hydrochloride] | 143 nM | – | 107% | –
Cc1ccc(NC(=O)N2CCC(CCN)CC2)cc1C.Cl [Compound 17, 4-(2-Aminoethyl)-N-(3,4-dimethylphenyl)piperidine-1-carboxamide hydrochloride] | 33 nM | – | 84% | Reduction in hyperlocomotion of DAT-KO rats [2]: absence of in vivo efficacy
Cc1cc(C)cc(NC(=O)N2CCC(CCN)CC2)c1.Cl [Compound 18, 4-(2-Aminoethyl)-N-(3,5-dimethylphenyl)piperidine-1-carboxamide hydrochloride] | 112 nM | – | 85% | Effect on DAT-KO hyperlocomotion at 5 mg/kg ([2]; 5 mg/kg i.p., dynamics for 90 min, two-way ANOVA): did not reveal significant effect; Effect on DAT-KO hyperlocomotion at 10 mg/kg ([2]; 10 mg/kg i.p., 90 min, two-way ANOVA): significantly decreased hyperlocomotion; Effect on DAT-KO hyperlocomotion at 15 mg/kg ([2]; 15 mg/kg i.p., 90 min, two-way ANOVA): significantly decreased DAT-KO hyperlocomotion; Reduction in hyperlocomotion of DAT-KO rats ([2]; listed as 18 (AP163)): statistically significant, dose-dependent reduction; also recorded: significantly attenuated DAT-KO hyperlocomotion; Reduction in hyperlocomotion of DAT-KO rats ([2]; listed as AP163): statistically significant and dose-dependent reduction in hyperlocomotion
Cc1ccc(C)c(NC(=O)N2CCC(CCN)CC2)c1.Cl [Compound 19, 4-(2-Aminoethyl)-N-(2,5-dimethylphenyl)piperidine-1-carboxamide hydrochloride] | 42 nM | – | 80% | Reduction in hyperlocomotion of DAT-KO rats [2]: absence of in vivo efficacy
Cc1cccc(NC(=O)N2CCC(CCN)CC2)c1C [Compound 20, 4-(2-Aminoethyl)-N-(2,3-dimethylphenyl)piperidine-1-carboxamide hydrochloride] | 914 nM | – | 82% | –
Cl.NCCC1CCN(C(=O)Nc2cccc(C(F)(F)F)c2)CC1 [Compound 21, 4-(2-Aminoethyl)-N-(3-(trifluoromethyl)phenyl)piperidine-1-carboxamide hydrochloride] | 35 nM | – | 96% | Solubility (Solubility): poor solubility
COc1ccc(C)cc1NC(=O)N1CCC(CCN)CC1 [Compound 22, 4-(2-Aminoethyl)-N-(2-methoxy-5-methylphenyl)piperidine-1-carboxamide hydrochloride] | 1900 nM | – | 84% | –
Cl.NCCC1CCN(C(=O)Nc2cccc(Cl)c2)CC1 [Compound 23, 4-(2-Aminoethyl)-N-(3-chlorophenyl)piperidine-1-carboxamide hydrochloride] | – | Inactive | – | –
NCCC1CCN(C(=O)c2ccccc2)CC1 [Compound 24, (4-(2-Aminoethyl)piperidin-1-yl)(phenyl)methanone hydrochloride] | 635 nM | – | 31% | –
Cc1cccc(C(=O)N2CCC(CCN)CC2)c1 [Compound 25, (4-(2-Aminoethyl)piperidin-1-yl)(m-tolyl)methanone] | 634 nM | – | 41% | –
Cl.NCCC1CCN(S(=O)(=O)c2ccccc2)CC1 [Compound 26, 2-[1-(Phenylsulfonyl)piperidin-4-yl]ethanamine hydrochloride] | – | Inactive | – | –
Cl.NCCC1CCN(S(=O)(=O)c2ccc(F)cc2)CC1 [Compound 27, 2-{1-[(4-Fluorophenyl)sulfonyl]piperidin-4-yl}ethanamine hydrochloride] | – | Inactive | – | –
Cc1ccc(S(=O)(=O)N2CCC(CCN)CC2)cc1.Cl [Compound 28, 2-{1-[(4-Methylphenyl)sulfonyl]piperidin-4-yl}ethanamine hydrochloride] | – | Inactive | – | –
CN1CCC(CCN)CC1.Cl.Cl [Compound 29, 2-(1-Methylpiperidin-4-yl)ethan-1-amine dihydrochloride] | – | Inactive | – | TAAR1 Activity (active / inactive, in words) (TAAR1 [1]): inactivity
CCc1[nH]nc(C(=O)Nc2ccc([C@H]3CNCCO3)cc2)c1C [Ralmitaront] | – | – | – | TAAR1 Activity (reference ligand) (TAAR1 [3]): Active
